Columns and labels:
[1] = Solubility of lipophilic salts in liquids; assay type: physicochemical
Description: (§1) Majority of tested compositions were prepared with ˜0.1 wt. % of atomic ^6Li, although a possibility of higher concentrations was also tested for some efficient formulations. For liquid preparations, solid constituents weighed in vials or glass jars at ambient condition were vacuumed and transferred into the nitrogen-filled glove box, where liquid components (EJ-309, DIPN, Tx-100, and IBA) were added for dissolution. Solutions were left to stirred overnight to reach equilibrium, then transferred into the quartz cuvettes, sealed, and removed from the glovebox. Unless indicated otherwise, measurements were made in small cylindrical cuvettes of Ø2 cm×1 cm in dimensions. For approximate evaluation of the attenuation, solutions of interest were also prepared and measured at larger scale in 2″×2″ (Ø5.1 cm×5.1 cm) quartz cuvettes.

[2] = Long-term stability of loaded solutions to precipitation; assay type: physicochemical
Description: as §1

[3] = without surfactant; cited from earlier work

CCCCC(CC)COC(=O)CC(C(=O)OCC(CC)CCCC)S(=O)(=O)[O-].[Li+] (centres unmarked) [^6LiDOSS, lithium 1,4-bis(2-ethylhexoxy)-1,4-dioxobutane-2-sulfonate]
solubility of the compound in DIPN ([1]; DIPN, studies of long-term stability): about 20 wt. %
solubility in organic fluids ([1]; organic fluids, of total scintillator): about 50 wt. %
solubility of the compound ([1]; without any additional dyes): up to 40 wt. %
^6Li concentration at which solutions are stable to solid precipitation ([2]; solution containing 0.5 wt. % of E404): ≤ 0.3 wt. % ^6Li
stability to long-term precipitation ([2]; solutions containing 0.2 wt. % of atomic lithium): stable to long-term precipitation

CC(C)CC(=O)[O-].[6Li+] [^6LiIVA, reference compound]
stability of solutions ([2]; single dye solutions in 90:10 DIPN:IBA): highly stable
precipitation or LO degradation on storage ([2]; single dye solutions in 95:5 DIPN:IBA, sealed samples, ~1 year of observations): no precipitation or LO degradation

O=C([O-])c1cccc(-c2ccccc2)c1O.[6Li+] [^6LiPSA]
solubility in aromatics [3]: slightly soluble

— US20240308956A1, “LIPOPHILIC LITHIUM SALTS FOR DIRECT DISSOLUTION IN ORGANIC SCINTILLATORS” (Lawrence Livermore National Security, LLC, priority 2022, published 2024)
